# Laboratory results taken from patent US12371454B2, “Cyclic peptide compound having Kras inhibitory action” (priority 2019, dated 2025).
# pIC50: −log10 of the molar value. Starred links: 1 amine or outer side, 2 acyl side, 3 side chain; linkers in the order of their positions; H or OH if unused. Positions of bridges follow the written chain, without caps; N, C: chain ends. Non-standard residues stand in square brackets, D forms with d. Residues, ends and D or L forms follow the SMILES beside them. *: point of attachment. hPhe(3-Cl-4-CF3) = N[C@@H](CCc1ccc(C(F)(F)F)c(Cl)c1)C(=O)O; hPhe(3-F,4-CF3) = N[C@@H](CCc1ccc(C(F)(F)F)c(F)c1)C(=O)O; X5 = CC(C)(C)NC(=O)COC[C@H](CC(=O)[*:1])N[*:2]; NMePhe(4-Cl) = CN[C@@H](Cc1ccc(Cl)cc1)C(=O)O; NMePhe(4-Me) = CN[C@@H](Cc1ccc(C)cc1)C(=O)O; X33 = Cc1ccc(CC[C@H](N[*:1])C(=O)[*:2])cc1; NMeGly(cPent) = CN[C@H](C(=O)O)C1CCCC1; Phe(3-I) = N[C@@H](Cc1cccc(I)c1)C(=O)O; Phe(2-Me) = Cc1ccccc1C[C@H](N)C(=O)O; NMeCha = CN[C@@H](CC1CCCCC1)C(=O)O; Azetidine(3,3-F2) = FC1(F)CN(*)C1; Ala(cPr) = N[C@@H](CC1CC1)C(=O)O; NMeF = CN[C@@H](Cc1ccccc1)C(=O)O; NMeI = CC[C@H](C)[C@H](NC)C(=O)O; dNMeF = CN[C@H](Cc1ccccc1)C(=O)O; NMeD = CN[C@@H](CC(=O)O)C(=O)O; NMeL = CN[C@@H](CC(C)C)C(=O)O; NMeV = CN[C@H](C(=O)O)C(C)C; d(β3hA) = C[C@@H](N)CC(=O)O; NMeA = CN[C@@H](C)C(=O)O; NMeAib = CNC(C)(C)C(=O)O; Nle = CCCC[C@H](N)C(=O)O; Piperidide = C1CCN(*)CC1; Pyrrolidide = C1CCN(*)C1; Ac5c = NC1(C(=O)O)CCCC1; Aze = O=C(O)[C@@H]1CCN1; βAla = NCCC(=O)O; Sar = CNCC(=O)O; Propyl = CCC*
# Target: T1, Kras and SOS1 (biotin-tagged human Kras loaded with GDP, His-tagged human SOS1) (Homo sapiens, UniProt P01116, G12D)
# T1 construct: made in house; host or cells: E. coli (stated for Kras only)
# T1 sequence (P01116 1-188 isoform P01116-2 G12D): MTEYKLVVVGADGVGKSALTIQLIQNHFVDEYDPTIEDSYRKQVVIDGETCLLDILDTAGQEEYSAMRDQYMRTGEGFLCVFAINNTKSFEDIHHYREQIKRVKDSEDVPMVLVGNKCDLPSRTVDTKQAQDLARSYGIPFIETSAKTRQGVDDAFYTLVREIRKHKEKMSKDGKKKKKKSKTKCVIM
# Assay: Protein-protein interaction inhibition between Kras and SOS1 (KrasGl2D-SOS PPI) using AlphaScreen
# Type: binding
# Conditions: AlphaScreen; biotin-tagged human Kras loaded with GDP, His-tagged human SOS1; read-out: KRAS G12D-SOS PPI IC50
# Outline: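 Donor beads (nickel) hold His-SOS1; acceptor beads (streptavidin) hold biotin-Kras bound to GDP. Signal measured at 520-620 nm following 680 nm excitation.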
row,Structure (SMILES),pIC50
1,"CC[C@H](C)[C@@H]1NC(=O)[C@H](CC(C)C)N(C)C(=O)C[C@@H](C(=O)N2CCCCC2)NC(=O)[C@H](CC(C)C)N(C)C(=O)C2(CCCC2)NC(=O)[C@@H]2CCCN2C(=O)[C@H](CCc2ccc(C(F)(F)F)c(F)c2)NC(=O)CN(C)C(=O)[C@H](CC2CCCCC2)N(C)C(=O)CN(C)C(=O)CN(C)C1=O [Compound 298] ([NMeL]I[Sar][Sar][NMeCha][Sar][hPhe(3-F,4-CF3)]P[Ac5c][NMeL]D-Piperidide; lactam N-11)",7.68
2,CC[C@H](C)[C@@H]1NC(=O)[C@H](C)N(C)C(=O)C[C@@H](C(=O)N2CCCC2)NC(=O)[C@H](CC(C)C)N(C)C(=O)[C@H](Cc2ccccc2)N(C)C(=O)[C@H](CC(C)C)NC(=O)[C@H](CCc2ccc(C)cc2)NC(=O)CN(C)C(=O)[C@H](Cc2ccc(Cl)cc2)N(C)C(=O)CN(C)C(=O)CN(C)C1=O [Compound 398] ([NMeA]I[Sar][Sar][NMePhe(4-Cl)][Sar][X33]L[NMeF][NMeL]D-Pyrrolidide; lactam N-11),6.92
3,CC[C@H](C)[C@@H]1NC(=O)[C@H](CC(C)C)N(C)C(=O)C[C@@H](C(=O)N2CCCCC2)N(C)C(=O)[C@H](C2CCCC2)N(C)C(=O)C2(CCCC2)NC(=O)[C@@H](Cc2ccccc2)N(C)C(=O)[C@H](CCc2ccc(C(F)(F)F)c(Cl)c2)NC(=O)CN(C)C(=O)[C@H](CC2CCCCC2)N(C)C(=O)[C@@H]2CCN2C(=O)[C@H](C)N(C)C1=O [Compound 1434] ([NMeL]I[NMeA][Aze][NMeCha][Sar][hPhe(3-Cl-4-CF3)][dNMeF][Ac5c][NMeGly(cPent)][NMeD]-Piperidide; lactam N-11),6.82
4,CC(C)C[C@H]1C(=O)N[C@@H](CC2CC2)C(=O)N(C)CC(=O)N(C)CC(=O)N(C)[C@@H](CC2CCCCC2)C(=O)N(C)CC(=O)N[C@@H](CCc2ccc(C(F)(F)F)c(Cl)c2)C(=O)N2CCC[C@H]2C(=O)NC2(CCCC2)C(=O)N(C)[C@@H](C(C)C)C(=O)N[C@H](C)CC(=O)N1C [Compound 550] (cyclo([Ac5c][NMeV][d(β3hA)][NMeL][Ala(cPr)][Sar][Sar][NMeCha][Sar][hPhe(3-Cl-4-CF3)]P)),6.96
5,CC[C@H](C)[C@@H]1NC(=O)[C@H](CC(C)C)N(C)C(=O)CCNC(=O)[C@H](C(C)C)N(C)C(=O)C2(CCCC2)NC(=O)[C@@H]2CCCN2C(=O)[C@H](CCc2ccc(C(F)(F)F)c(Cl)c2)NC(=O)CN(C)C(=O)[C@H](CC2CCCCC2)N(C)C(=O)CN(C)C(=O)CN(C)C1=O [Compound 979] (cyclo([Ac5c][NMeV][βAla][NMeL]I[Sar][Sar][NMeCha][Sar][hPhe(3-Cl-4-CF3)]P)),7.43
6,CC[C@H](C)[C@@H]1NC(=O)[C@H](CC(C)C)N(C)C(=O)C[C@@H](C(=O)N2CCCCC2)N(C)C(=O)[C@H](CC(C)C)NC(=O)C(C)(C)N(C)C(=O)[C@H](Cc2ccccc2C)NC(=O)[C@H](Cc2cccc(I)c2)NC(=O)CN(C)C(=O)[C@H](Cc2ccc(C)cc2)N(C)C(=O)[C@@H]2CCN2C(=O)CN(C)C1=O [Compound 335] ([NMeL]I[Sar][Aze][NMePhe(4-Me)][Sar][Phe(3-I)][Phe(2-Me)][NMeAib]L[NMeD]-Piperidide; lactam N-11),7.17
7,CC[C@H](C)[C@@H]1NC(=O)[C@H](C(C)C)N(C)C(=O)C[C@@H](C)NC(=O)[C@H](CC(C)C)N(C)C(=O)C2(CCCC2)NC(=O)[C@H](CC(C)C)N(C)C(=O)[C@H](CCc2ccc(C(F)(F)F)c(Cl)c2)NC(=O)CN(C)C(=O)[C@H](Cc2ccc(Cl)cc2)N(C)C(=O)[C@@H]2CCN2C(=O)CN(C)C1=O [Compound 158] (cyclo([Ac5c][NMeL][d(β3hA)][NMeV]I[Sar][Aze][NMePhe(4-Cl)][Sar][hPhe(3-Cl-4-CF3)][NMeL])),8.00
8,CCCC[C@@H]1NC(=O)[C@H](Cc2cccc(I)c2)NC(=O)CN(C)C(=O)[C@H](Cc2ccc(Cl)cc2)N(C)C(=O)CN(C)C(=O)CN(C)C(=O)[C@H]([C@@H](C)CC)NC(=O)[C@H](CC(C)C)N(C)C(=O)C[C@@H](C(=O)N2CCCCC2)N(C)C(=O)[C@H](CC(C)C)NC(=O)[C@H](Cc2ccc(C)cc2)N(C)C1=O [Compound 876] ([NMeL]I[Sar][Sar][NMePhe(4-Cl)][Sar][Phe(3-I)][Nle][NMePhe(4-Me)]L[NMeD]-Piperidide; lactam N-11),7.74
9,"CCCOC[C@@H]1NC(=O)[C@H](CC(=O)N2CC(F)(F)C2)N(C)C(=O)[C@H](CCc2ccc(C(F)(F)F)c(Cl)c2)NC(=O)CN(C)C(=O)[C@H](CC2CCCCC2)N(C)C(=O)CN(C)C(=O)CN(C)C(=O)[C@H]([C@@H](C)CC)NC(=O)[C@H](C)N(C)C(=O)C[C@@H](C(=O)N2CCCCC2)N(C)C(=O)[C@H](C(C)C)N(C)C1=O [Compound 129] ([NMeA]I[Sar][Sar][NMeCha][Sar][hPhe(3-Cl-4-CF3)][NMeD](Azetidine(3,3-F2))S(Propyl)[NMeV][NMeD]-Piperidide; lactam N-11)",7.96
10,CC[C@H](C)[C@@H]1NC(=O)[C@H](CC(C)C)N(C)C(=O)C[C@@H](COCC(=O)NC(C)(C)C)NC(=O)[C@H]([C@@H](C)CC)N(C)C(=O)C2(CCCC2)NC(=O)[C@@H]2CCCN2C(=O)[C@H](CCc2ccc(C(F)(F)F)c(Cl)c2)NC(=O)CN(C)C(=O)[C@H](Cc2ccc(C)cc2)N(C)C(=O)[C@@H]2CCN2C(=O)[C@H](C)N(C)C1=O [Compound 1960] ([NMeL]I[NMeA][Aze][NMePhe(4-Me)][Sar][hPhe(3-Cl-4-CF3)]P[Ac5c][NMeI]; linker N-C via X5),7.25
